The source of these data is US20230113037A1 (Bayer Aktiengesellschaft, priority 2019, published 2023).

The structures appear in SMILES notation. Where two headings read alike, the source gives them in different places. Some results are limits rather than exact numbers.

Test [1] deals with T1, AHR (Mus musculus, UniProt P30561).
T1 sequence (P30561 1-848 P471L/N533S/M589L): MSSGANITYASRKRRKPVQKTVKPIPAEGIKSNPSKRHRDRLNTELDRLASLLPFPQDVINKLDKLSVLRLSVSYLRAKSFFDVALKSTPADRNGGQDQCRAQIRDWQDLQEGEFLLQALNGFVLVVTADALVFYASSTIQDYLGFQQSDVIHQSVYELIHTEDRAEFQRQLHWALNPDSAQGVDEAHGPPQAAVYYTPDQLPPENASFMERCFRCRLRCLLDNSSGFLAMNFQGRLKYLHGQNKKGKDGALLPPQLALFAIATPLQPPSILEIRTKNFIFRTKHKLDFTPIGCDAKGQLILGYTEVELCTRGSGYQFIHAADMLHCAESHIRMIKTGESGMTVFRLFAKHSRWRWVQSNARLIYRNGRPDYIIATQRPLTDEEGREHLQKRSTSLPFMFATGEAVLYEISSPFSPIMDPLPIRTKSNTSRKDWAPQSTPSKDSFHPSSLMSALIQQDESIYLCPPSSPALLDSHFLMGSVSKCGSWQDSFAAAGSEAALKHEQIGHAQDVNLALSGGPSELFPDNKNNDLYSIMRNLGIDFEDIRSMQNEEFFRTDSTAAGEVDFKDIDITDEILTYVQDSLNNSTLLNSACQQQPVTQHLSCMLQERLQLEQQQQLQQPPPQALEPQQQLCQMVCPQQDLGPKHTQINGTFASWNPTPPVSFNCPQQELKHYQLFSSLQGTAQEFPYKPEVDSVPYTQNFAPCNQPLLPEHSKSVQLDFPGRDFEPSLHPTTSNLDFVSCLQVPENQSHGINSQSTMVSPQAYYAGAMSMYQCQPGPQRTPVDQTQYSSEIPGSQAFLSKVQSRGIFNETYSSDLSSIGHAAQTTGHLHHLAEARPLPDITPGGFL
Put plainly: In vitro assay 3: antagonism in mouse cell line (AHR transactivation, firefly luciferase reporter, kynurenic acid prestimulated). The class given is cell-based. The following applies: 200 μM kynurenic acid, 20 hours, read-out: AHR Antagonism Mouse IC50. The method, boiled down: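 Cells were first stimulated with kynurenic acid, then exposed to test compound, after which firefly luciferase from a DRE-containing AHR reporter was read out. Signal was scaled between positive and negative controls. Cells not given kynurenic acid provided the inhibition reference.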
For orientation: Reporter assays use an easily measured gene product as a stand-in for the process of interest.

Test [2] addresses T2, AHR (Homo sapiens, UniProt P35869).
T2 construct: U87 MG glioblastoma cells (ATCC #HTB-14) endogenously expressing AHR; endogenous in cells; host or cells: U87 MG glioblastoma cells (ATCC #HTB-14)
T2 sequence (P35869 11-848): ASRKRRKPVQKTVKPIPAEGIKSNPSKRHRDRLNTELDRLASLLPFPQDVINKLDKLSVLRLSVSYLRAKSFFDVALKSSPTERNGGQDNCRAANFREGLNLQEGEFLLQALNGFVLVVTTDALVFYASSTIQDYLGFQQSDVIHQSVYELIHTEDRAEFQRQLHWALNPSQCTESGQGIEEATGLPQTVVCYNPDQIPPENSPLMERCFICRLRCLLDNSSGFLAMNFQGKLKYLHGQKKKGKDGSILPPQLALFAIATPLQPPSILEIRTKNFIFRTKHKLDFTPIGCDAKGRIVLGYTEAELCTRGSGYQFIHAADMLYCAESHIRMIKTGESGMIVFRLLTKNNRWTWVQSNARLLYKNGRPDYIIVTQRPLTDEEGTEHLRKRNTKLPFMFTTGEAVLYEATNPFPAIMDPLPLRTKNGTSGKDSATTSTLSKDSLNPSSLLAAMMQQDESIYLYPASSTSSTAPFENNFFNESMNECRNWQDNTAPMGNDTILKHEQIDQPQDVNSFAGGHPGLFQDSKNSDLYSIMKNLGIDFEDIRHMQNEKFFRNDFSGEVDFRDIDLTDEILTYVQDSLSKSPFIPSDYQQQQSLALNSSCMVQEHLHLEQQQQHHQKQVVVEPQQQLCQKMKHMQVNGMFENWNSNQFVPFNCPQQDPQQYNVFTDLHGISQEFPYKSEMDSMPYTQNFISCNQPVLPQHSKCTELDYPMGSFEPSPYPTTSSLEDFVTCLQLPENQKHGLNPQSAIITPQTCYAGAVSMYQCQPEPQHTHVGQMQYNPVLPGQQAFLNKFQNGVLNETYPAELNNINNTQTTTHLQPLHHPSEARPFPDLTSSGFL
Put plainly: In vitro assay 1: antagonism in human cell line (AHR transactivation, firefly luciferase reporter, kynurenic acid prestimulated). The class given is cell-based. The following applies: AHR Antagonism Human IC50 [M]. A digest of the protocol:
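U87 MG + DRE-firefly/constitutive-Renilla stable reporters; kynurenic acid prestim; dual-luc read; Renilla = tox; normalized vs pos/neg controls (pos: 150 μM KYNA + 5 μM staurosporine).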

[3] abbreviates: Hepa 1c1c7 cells, firefly luciferase reporter.

By IC50 is commonly meant the midpoint of a concentration-inhibition curve. For the compound `COc1ccc(-c2nc3c4ccccc4nc(N[C@H]4CCCCNC4=O)n3n2)c(OC(F)(F)F)c1` [Example 509, (3S)-3-({2-[4-methoxy-2-(trifluoromethoxy)phenyl][1,2,4]triazolo[1,5-c]quinazolin-5-yl}amino)azepan-2-one], the values for the IC50 at AHR [1] (mouse Hepa 1c1c7 cells) and on AHR [2] were 56.9 nM and 1.03e-07 M, respectively.
Take `CC[C@@H](Nc1nc2ccccc2c2nc(-c3ccsc3C)nn12)C(N)=O` [Example 351]: the half-maximal inhibitory concentration (IC50) on AHR [1] (mouse Hepa 1c1c7 cells) is 0.125 nM; against AHR [2] it was 1.37e-09 M.
For the compound `CCCNC(=O)[C@H](CC)Nc1nc2c(Br)cccc2c2nc(-c3ccc(Cl)cc3OC(F)F)nn12` [Example 683, (2S)-2-({7-bromo-2-[4-chloro-2-(difluoromethoxy)phenyl][1,2,4]triazolo[1,5-c]quinazolin-5-yl}amino)-N-propylbutanamide], the half-inhibitory concentration (IC50) at AHR [1] (mouse Hepa 1c1c7 cells) is 16.6 nM; on AHR [2], above 5.71e-07 M.
Consider `O=C1NCCNC[C@H]1Nc1nc2ccccc2c2nc(-c3cn[nH]c3)nn12` [Example 264, (6R)-6-{[2-(1H-pyrazol-4-yl)[1,2,4]triazolo[1,5-c]quinazolin-5-yl]amino}-1,4-diazepan-5-one], for which the results for the IC50 on AHR [1] (mouse Hepa 1c1c7 cells) and at AHR [2] were above 20000 nM and above 2e-05 M, respectively.
Turning to `C[C@@H](Nc1nc2c(Br)cccc2c2nc(-c3cnn(C)c3)nn12)C(=O)N1C[C@@H]2C[C@H]1CN2C` [Example 900], the figures for the concentration for half-maximal inhibition (IC50) on AHR [1] (setting [3]) and against AHR [2] (firefly luciferase reporter) were 72.3 nM and 4.4e-08 M, respectively.
Take `N#Cc1cccc2c1nc(N[C@@H]1CCCCNC1=O)n1nc(-c3ccc(F)cc3)nc21` [Example 402, 2-(4-Fluorophenyl)-5-{[(3R)-2-oxoazepan-3-yl]amino}[1,2,4]triazolo[1,5-c]quinazoline-7-carbonitrile]: the figures for the IC50 at AHR [1] (mouse Hepa 1c1c7 cells) and against AHR [2] were 26.1 nM and 8.32e-09 M, respectively.
Take `O=C1NCCCC[C@@H]1Nc1nc2ccccc2c2nc(-c3cc(Cl)ccc3OC(F)(F)F)nn12` [Example 498, (3S)-3-({2-[5-chloro-2-(trifluoromethoxy)phenyl][1,2,4]triazolo[1,5-c]quinazolin-5-yl}amino)azepan-2-one]: the concentration for half-maximal inhibition (IC50) at AHR [1] (mouse Hepa 1c1c7 cells) is 700 nM; against AHR [2], above 2e-05 M.
`COc1ccc(-c2nc3c4ccc(C(C)C)cc4nc(N[C@@H]4CCCCNC4=O)n3n2)cc1` [Example 395, (3R)-3-{[2-(4-Methoxyphenyl)-8-(propan-2-yl)[1,2,4]triazolo[1,5-c]quinazolin-5-yl]amino}azepan-2-one]: the half-maximal inhibitory concentration (IC50) on AHR [1] (mouse Hepa 1c1c7 cells) was 2410 nM; against AHR [2] it was 3e-07 M.
On the same counts, the results for `O=C1NCCNC[C@H]1Nc1nc2c(Cl)cccc2c2nc(-c3cccc(F)c3)nn12` [Example 419, (6R)-6-{[7-chloro-2-(3-fluorophenyl)[1,2,4]triazolo[1,5-c]quinazolin-5-yl]amino}-1,4-diazepan-5-one] are 3.46 nM and 3.49e-09 M.
As for `O=C1NCCC[C@H]1Nc1nc2ccccc2c2nc(-c3cc(Cl)ccc3OC(F)(F)F)nn12` [Example 499, (3R)-3-({2-[5-chloro-2-(trifluoromethoxy)phenyl][1,2,4]triazolo[1,5-c]quinazolin-5-yl}amino)piperidin-2-one], the figures for the IC50 at AHR [1] (mouse Hepa 1c1c7 cells) and against AHR [2] were above 20000 nM and above 2e-05 M, respectively.
Consider `O=C1NCCCC[C@H]1Nc1nc2ccccc2c2nc(-c3ccccn3)nn12` [Example 124, (3R)-3-{[2-(pyridin-2-yl)[1,2,4]triazolo[1,5-c]quinazolin-5-yl]amino}azepan-2-one], for which the half-maximal inhibitory concentration (IC50) on AHR [1] (mouse Hepa 1c1c7 cells) worked out at 54.1 nM; against AHR [2], 2.83e-08 M.
Take `O=C1NCCNC[C@H]1Nc1nc2ccccc2c2nc(-c3cnn(CC4CC4)c3)nn12` [Example 416, (6R)-6-({2-[1-(cyclopropylmethyl)-1H-pyrazol-4-yl][1,2,4]triazolo[1,5-c]quinazolin-5-yl}amino)-1,4-diazepan-5-one]: the IC50 was determined as 354 nM on AHR [1] (mouse Hepa 1c1c7 cells) and 2.1e-06 M on AHR [2].
For the compound `COc1ccc(-c2nc3c4ccccc4nc(N[C@@H]4CNCCNC4=O)n3n2)c(C)c1` [Example 410, (6R)-6-{[2-(4-methoxy-2-methylphenyl)[1,2,4]triazolo[1,5-c]quinazolin-5-yl]amino}-1,4-diazepan-5-one], the half-inhibitory concentration (IC50) at AHR [1] (mouse Hepa 1c1c7 cells) worked out at 4.73 nM; against AHR [2], 1.53e-08 M.
Turning to `C[C@@H](Nc1nc2c(Br)cccc2c2nc(-c3cnn(C)c3)nn12)C(=O)NCCN1CCN(C(=O)OC(C)(C)C)CC1` [Example 891, tert-butyl 4-[2-({N-[7-bromo-2-(1-methyl-1H-pyrazol-4-yl)[1,2,4]triazolo[1,5-c]quinazolin-5-yl]-D-alanyl}amino)ethyl]piperazine-1-carboxylate], the IC50 worked out at 66.8 nM at AHR [1] (setting [3]) and 5.75e-08 M at AHR [2] (firefly luciferase reporter).
In the case of `COc1ccc(-c2nc3c4ccccc4nc(N[C@@H]4CCNC4=O)n3n2)cc1` [Example 39, (3R)-3-{[2-(4-methoxyphenyl)[1,2,4]triazolo[1,5-c]quinazolin-5-yl]amino}pyrrolidin-2-one], the half-maximal inhibitory concentration (IC50) is 53.6 nM on AHR [1] (mouse Hepa 1c1c7 cells) and 1.59e-08 M on AHR [2].
As to `Cn1cc(-c2nc3c4cccc(C(F)(F)F)c4nc(N[C@@H]4CNCCNC4=O)n3n2)cn1` [Example 425, (6R)-6-{[2-(1-methyl-1H-pyrazol-4-yl)-7-(trifluoromethyl)[1,2,4]triazolo[1,5-c]quinazolin-5-yl]amino}-1,4-diazepan-5-one], the half-maximal inhibitory concentration (IC50) amounted to 23.9 nM on AHR [1] (mouse Hepa 1c1c7 cells) and 6.84e-09 M against AHR [2].
As for `CCSc1cccc2c1nc(N[C@@H]1CCCCNC1=O)n1nc(-c3cnn(C)c3)nc21` [Example 769, (3R)-3-{[7-(ethylsulfanyl)-2-(1-methyl-1H-pyrazol-4-yl)[1,2,4]triazolo[1,5-c]quinazolin-5-yl]amino}azepan-2-one], the IC50 on AHR [1] (mouse Hepa 1c1c7 cells) came to 151 nM; against AHR [2] it was 2.1e-08 M.
The corresponding values for `C[C@@H](Nc1nc2ccccc2c2nc(-c3cnn(C)c3)nn12)C(=O)NCCN(C)C` [Example 776, N-[2-(dimethylamino)ethyl]-N^2-[2-(1-methyl-1H-pyrazol-4-yl)[1,2,4]triazolo[1,5-c]quinazolin-5-yl]-D-alaninamide] are 1020 nM and 2.92e-06 M.
Regarding `COc1cccc(-c2nc3c4c(F)cccc4nc(N[C@@H]4CCCCNC4=O)n3n2)c1` [Example 185], the 50% inhibitory concentration (IC50) at AHR [1] (mouse Hepa 1c1c7 cells) was found to be 9.84 nM; on AHR [2], 1.05e-08 M.
As to `CC[C@H](Nc1nc2ccccc2c2nc(-c3ccc(Cl)cc3OC(F)(F)F)nn12)C(N)=O` [Example 522, (2S)-2-({2-[4-chloro-2-(trifluoromethoxy)phenyl][1,2,4]triazolo[1,5-c]quinazolin-5-yl}amino)butanamide], the 50% inhibitory concentration (IC50) at AHR [1] (mouse Hepa 1c1c7 cells) is 29.1 nM; on AHR [2], above 2e-05 M.
The corresponding values for `COc1ccc(-c2nc3c4cccc(OCC(C)(F)F)c4nc(N[C@@H]4CCCCNC4=O)n3n2)cc1` [Example 668, (3R)-3-{[7-(2,2-difluoropropoxy)-2-(4-methoxyphenyl)[1,2,4]triazolo[1,5-c]quinazolin-5-yl]amino}azepan-2-one] are 271 nM and above 5.71e-06 M.
